Laboratory results reported in patent US10792289B2 (Horizon Orphan LLC, priority 2009, dated 2020).

Key:
[1] = test system: non-fermenting gram negative bacilli (NFGNB), excluding P. aeruginosa; assay: Phase 2 study: non-fermenting gram negative bacilli density in sputum; type: in vivo
Protocol: The following dosage regimens (as nebulizer loaded doses) were evaluated: 120 mg QD (daily); 240 mg QD (daily); and 240 mg BID (twice daily). Based on aerosol characterization studies of the 100 mg/ml formulation, these loaded doses of 120 and 240 mg correspond estimated respirable delivered doses (RDDs) using a PART eFlow nebulizer of about 65 and 130 mg, respectively.
Patients were assessed on Day 1, 7, 14, and 28, and then up to 28 days after completion of study drug, namely, Days 42 and 56. The end of the study was defined as the last visit of the last patient. Study populations included: (1) safety/modified intent to treat (MITT) population which included all patients enrolled in the study that receive at least one dose of study drug; (2) efficacy evaluable (EE) population which included all patients enrolled in the study without major protocol violations that receive at least 80% of study drug doses during the 28 days of study drug therapy; and (3) pharmacokinetic (PK) population which included all patients that receive at least one dose of study drug and have at least one PK blood sample collected.
Changes in P. aeruginosa density (log lo CFU/g sputum) for sputum samples taken from the EE and MITT populations are summarized in Tables 10 and 11, respectively (SD=standard deviation). […] Tables 18 and 19 summarize changes in non-fermenting gram negative bacilli density (NFGNB), excluding P. aeruginosa, with only patients with positive NFGNB counts at baseline, for EE and MITT populations, respectively. Tables 20 and 21 summarize changes for presumptive S. aureus density (log10 CFU/g sputum) for only patients with positive S. aureus counts at baseline, for EE and MITT populations, respectively.

stable CF patients = assay: Phase 2 study: safety, adverse events, discontinuation; type: in vivo, human
Protocol: The following dosage regimens (as nebulizer loaded doses) were evaluated: 120 mg QD (daily); 240 mg QD (daily); and 240 mg BID (twice daily).
Patients were assessed on Day 1, 7, 14, and 28, and then up to 28 days after completion of study drug, namely, Days 42 and 56. The end of the study was defined as the last visit of the last patient.
Adverse events and drug intolerability from Day 1 through the end of study were evaluated.

[2] = EE population, Combined 240 mg QD and BID
[3] = EE population, Combined Levofloxacin
[4] = MITT population, Combined 240 mg QD and BID
[5] = MITT population, Combined Levofloxacin

C[C@H]1COc2c(N3CCN(C)CC3)c(F)cc3c(=O)c(C(=O)O)cn1c23 [Levofloxacin, levofloxacin]
NFGNB density, Change from Baseline to Day 7, Mean ([1]; EE population, 120 mg QD): −1.15 log10 CFU/g sputum | NFGNB density, Day 1, Mean ([1]; EE population, 120 mg QD): 5.69 log10 CFU/g sputum | NFGNB density, Day 7, Mean ([1]; EE population, 120 mg QD): 4.54 log10 CFU/g sputum | NFGNB density, Day 14, Mean ([1]; EE population, 120 mg QD): 3.15 log10 CFU/g sputum | NFGNB density, Day 28, Mean ([1]; EE population, 120 mg QD): 5.10 log10 CFU/g sputum | NFGNB density, Change from Baseline to Day 28, Mean ([1]; EE population, 120 mg QD, Day 14): −2.54 log10 CFU/g sputum | NFGNB density, Change from Baseline to Day 28, Mean ([1]; EE population, 120 mg QD, Day 28): −1.44 log10 CFU/g sputum | NFGNB density, Change from Baseline to Day 7, Mean ([1]; EE population, 240 mg BID): −0.51 log10 CFU/g sputum | NFGNB density, Day 1, Mean ([1]; EE population, 240 mg BID): 5.52 log10 CFU/g sputum | NFGNB density, Day 7, Mean ([1]; EE population, 240 mg BID): 5.01 log10 CFU/g sputum | NFGNB density, Day 14, Mean ([1]; EE population, 240 mg BID): 6.02 log10 CFU/g sputum | NFGNB density, Day 28, Mean ([1]; EE population, 240 mg BID): 5.01 log10 CFU/g sputum | NFGNB density, Change from Baseline to Day 28, Mean ([1]; EE population, 240 mg BID, Day 14): 0.50 log10 CFU/g sputum | NFGNB density, Change from Baseline to Day 28, Mean ([1]; EE population, 240 mg BID, Day 28): −0.51 log10 CFU/g sputum | NFGNB density, Change from Baseline to Day 7, Mean ([1]; EE population, 240 mg QD): −2.47 log10 CFU/g sputum | NFGNB density, Day 1, Mean ([1]; EE population, 240 mg QD): 4.65 log10 CFU/g sputum | NFGNB density, Day 7, Mean ([1]; EE population, 240 mg QD): 2.18 log10 CFU/g sputum | NFGNB density, Day 14, Mean ([1]; EE population, 240 mg QD): 2.04 log10 CFU/g sputum | NFGNB density, Day 28, Mean ([1]; EE population, 240 mg QD): 1.36 log10 CFU/g sputum | NFGNB density, Change from Baseline to Day 28, Mean ([1]; EE population, 240 mg QD, Day 14): −2.61 log10 CFU/g sputum | NFGNB density, Change from Baseline to Day 28, Mean ([1]; EE population, 240 mg QD, Day 28): −3.29 log10 CFU/g sputum | NFGNB density, Change from Baseline to Day 7, Mean [1, 2]: −1.60 log10 CFU/g sputum | NFGNB density, Day 1, Mean [1, 2]: 5.03 log10 CFU/g sputum | NFGNB density, Day 7, Mean [1, 2]: 3.44 log10 CFU/g sputum | NFGNB density, Day 14, Mean [1, 2]: 3.80 log10 CFU/g sputum | NFGNB density, Day 28, Mean [1, 2]: 2.98 log10 CFU/g sputum | NFGNB density, Change from Baseline to Day 28, Mean ([1]; EE population, Combined 240 mg QD and BID, Day 14): −1.23 log10 CFU/g sputum | NFGNB density, Change from Baseline to Day 28, Mean ([1]; EE population, Combined 240 mg QD and BID, Day 28): −2.05 log10 CFU/g sputum | NFGNB density, Change from Baseline to Day 7, Mean [1, 3]: −1.44 log10 CFU/g sputum | NFGNB density, Day 1, Mean [1, 3]: 5.27 log10 CFU/g sputum | NFGNB density, Day 7, Mean [1, 3]: 3.83 log10 CFU/g sputum | NFGNB density, Day 14, Mean [1, 3]: 3.57 log10 CFU/g sputum | NFGNB density, Day 28, Mean [1, 3]: 3.63 log10 CFU/g sputum | NFGNB density, Change from Baseline to Day 28, Mean ([1]; EE population, Combined Levofloxacin, Day 14): −1.70 log10 CFU/g sputum | NFGNB density, Change from Baseline to Day 28, Mean ([1]; EE population, Combined Levofloxacin, Day 28): −1.87 log10 CFU/g sputum | NFGNB density, Change from Baseline to Day 7, Mean ([1]; MITT population, 120 mg QD): −1.15 log10 CFU/g sputum | NFGNB density, Day 1, Mean ([1]; MITT population, 120 mg QD): 5.69 log10 CFU/g sputum | NFGNB density, Day 7, Mean ([1]; MITT population, 120 mg QD): 4.54 log10 CFU/g sputum | NFGNB density, Day 14, Mean ([1]; MITT population, 120 mg QD): 3.25 log10 CFU/g sputum | NFGNB density, Day 28, Mean ([1]; MITT population, 120 mg QD): 5.10 log10 CFU/g sputum | NFGNB density, Change from Baseline to Day 28, Mean ([1]; MITT population, 120 mg QD, Day 14): −2.54 log10 CFU/g sputum | NFGNB density, Change from Baseline to Day 28, Mean ([1]; MITT population, 120 mg QD, Day 28): −1.44 log10 CFU/g sputum | NFGNB density, Change from Baseline to Day 7, Mean ([1]; MITT population, 240 mg BID): −0.42 log10 CFU/g sputum | NFGNB density, Day 1, Mean ([1]; MITT population, 240 mg BID): 6.05 log10 CFU/g sputum | NFGNB density, Day 7, Mean ([1]; MITT population, 240 mg BID): 5.63 log10 CFU/g sputum | NFGNB density, Day 14, Mean ([1]; MITT population, 240 mg BID): 6.50 log10 CFU/g sputum | NFGNB density, Day 28, Mean ([1]; MITT population, 240 mg BID): 5.63 log10 CFU/g sputum | NFGNB density, Change from Baseline to Day 28, Mean ([1]; MITT population, 240 mg BID, Day 14): 0.45 log10 CFU/g sputum | NFGNB density, Change from Baseline to Day 28, Mean ([1]; MITT population, 240 mg BID, Day 28): −0.43 log10 CFU/g sputum | NFGNB density, Change from Baseline to Day 7, Mean ([1]; MITT population, 240 mg QD): −2.73 log10 CFU/g sputum | NFGNB density, Day 1, Mean ([1]; MITT population, 240 mg QD): 5.26 log10 CFU/g sputum | NFGNB density, Day 7, Mean ([1]; MITT population, 240 mg QD): 2.52 log10 CFU/g sputum | NFGNB density, Day 14, Mean ([1]; MITT population, 240 mg QD): 3.08 log10 CFU/g sputum | NFGNB density, Day 28, Mean ([1]; MITT population, 240 mg QD): 2.77 log10 CFU/g sputum | NFGNB density, Change from Baseline to Day 28, Mean ([1]; MITT population, 240 mg QD, Day 14): −2.18 log10 CFU/g sputum | NFGNB density, Change from Baseline to Day 28, Mean ([1]; MITT population, 240 mg QD, Day 28): −2.49 log10 CFU/g sputum | NFGNB density, Change from Baseline to Day 7, Mean [1, 4]: −1.77 log10 CFU/g sputum | NFGNB density, Day 1, Mean [1, 4]: 5.59 log10 CFU/g sputum | NFGNB density, Day 7, Mean [1, 4]: 3.82 log10 CFU/g sputum | NFGNB density, Day 14, Mean [1, 4]: 4.50 log10 CFU/g sputum | NFGNB density, Day 28, Mean [1, 4]: 3.96 log10 CFU/g sputum | NFGNB density, Change from Baseline to Day 28, Mean ([1]; MITT population, Combined 240 mg QD and BID, Day 14): −1.08 log10 CFU/g sputum | NFGNB density, Change from Baseline to Day 28, Mean ([1]; MITT population, Combined 240 mg QD and BID, Day 28): 1.63 log10 CFU/g sputum | NFGNB density, Change from Baseline to Day 7, Mean [1, 5]: −1.59 log10 CFU/g sputum | NFGNB density, Day 1, Mean [1, 5]: 5.62 log10 CFU/g sputum | NFGNB density, Day 7, Mean [1, 5]: 4.03 log10 CFU/g sputum | NFGNB density, Day 14, Mean [1, 5]: 4.11 log10 CFU/g sputum | NFGNB density, Day 28, Mean [1, 5]: 4.24 log10 CFU/g sputum | NFGNB density, Change from Baseline to Day 28, Mean ([1]; MITT population, Combined Levofloxacin, Day 14): −1.51 log10 CFU/g sputum | NFGNB density, Change from Baseline to Day 28, Mean ([1]; MITT population, Combined Levofloxacin, Day 28): −1.58 log10 CFU/g sputum | Discontinuation from study, primary reason adverse event, patients (%) (stable CF patients; 120 mg QD): 1 (2.6%) | Study drug discontinuation, adverse event, patients (%) (stable CF patients; 120 mg QD): 3 (7.9%) | Study drug discontinuation, patients (%) (stable CF patients; 120 mg QD): 3 (7.9%) | Discontinuation from study, primary reason adverse event, patients (%) (stable CF patients; 240 mg BID): 2 (5.1%) | Study drug discontinuation, adverse event, patients (%) (stable CF patients; 240 mg BID): 2 (5.1%) | Study drug discontinuation, patients (%) (stable CF patients; 240 mg BID): 2 (5.1%) | Discontinuation from study, primary reason adverse event, patients (%) (stable CF patients; 240 mg QD): 1 (2.7%) | Study drug discontinuation, adverse event, patients (%) (stable CF patients; 240 mg QD): 1 (2.7%) | Study drug discontinuation, patients (%) (stable CF patients; 240 mg QD): 1 (2.7%) | Significant adverse events (stable CF patients; Day 1 through the end of study): No significant adverse events were reported
